The text below walks through data of the OPERA property sets (Mansouri et al. 2018).

Where a SMILES comes first, the peptide text is derived from it.

By logP is commonly meant a log measure of how a compound divides between an organic and an aqueous phase. Lower therefore signals a more hydrophilic compound.

The compound `CC1=CC(=C2C(=O)c3ccccc3C2=O)C=C(C)N1CCCNC(=O)N(CCCl)N=O` yielded a logP of 2.84.
Next, `COC(=O)C(C)NP(=O)(OCC1C=CC(n2cc(C)c(=O)[nH]c2=O)O1)Oc1ccc(C(F)(F)F)cc1` (centres undefined): 1.57; `NC(Cc1ccccc1)C(=O)NC(Cc1ccccc1)C(=O)O` (stereo not drawn) (H-Phe-Phe-OH; configuration not given here): -0.85.
Next, `CCN(CC)CCSC(=NO)c1noc(-c2ccccc2)n1`: 3.05; `Clc1ccc(N2CCN(CCCOn3nnc4ccccc43)CC2)cc1`: 4.15.
Turning to `Cc1nc2c3c(c(C(=O)N(C)C)cn2c1CO)CCC(c1ccccc1)O3` (centres undefined), the lipophilicity (logP) stood at 1.72.
The same measure for `Cc1cc2c(C)c3ccc(=O)oc3cc2o1`: 2.84.
Next, `CC(=O)Nc1ccc(F)cc1F`: 1.5.
The same measure for `CCN(CC)c1ccc(NC(=O)N(C)OC)cc1`: 2.33.
In turn, `Nc1cccc(Cn2cnc3ccccc32)c1` yielded a logP of 1.92.
Next, `S=c1[nH]nc(Cn2ccc3ccccc32)n1-c1ccccc1`: 2.68; `Nc1ccc(S(=O)(=O)Nc2cccc3[nH]ccc23)cc1`: 1.41.
The same measure for `COC(=O)C=CCn1ccnc1[N+](=O)[O-]`: 0.32; for `CC(C)CC(NC(=O)C(Cc1ccccc1)NC(=O)C(N)C(C)C)C(=O)NC(C(=O)O)C(C)O` (centres undefined) (H-VFLT-OH; configuration not given here): -1.32; for `Cc1coc2cc3oc(=O)ccc3c(C)c12`: 2.79.
Next, `CCOC(=O)c1[nH]cc(-c2ccc(Cl)cc2)c1N1CCOCC1`: 3.9; `Cc1[nH]cnc1CSCCNc1ncc(Cc2cccc3c2OCO3)c(=O)n1C`: 2.51.
As for `O=C(O)Cc1c(O)cccc1Nc1c(Cl)cccc1Cl`, the log partition coefficient (logP) was determined as 4.65.
Compound `COCCCNc1ncnc2c1ncn2C1OC(CO)C(O)C1O` (centres undefined) showed a lipophilicity (logP) of -0.17.
Next, `Cc1c(O)c(=O)ccn1CCCO`: -0.88; `Cc1cn(C2C=CC(COP3(=O)OCc4cc([N+](=O)[O-])ccc4O3)O2)c(=O)[nH]c1=O` (centres undefined): 0.18.
`NC(=O)c1cccc(Cn2cnc3ccccc32)c1`: the log partition coefficient (logP) was 1.7.
The same measure for `CCC(C)C(NC(C)=O)C(=O)NC(Cc1ccccc1)C(=O)NC(CCCNC(=N)N)C(N)=O` (stereo not drawn) (Ac-Ile-Phe-Arg-NH2; configuration not given here): -0.05; for `C=C1CCCC2(C)CCC(C(C)(C)O)CC12` (centres undefined): 4.64; for `CC(C)CC(NC(=O)C(CC(C)C)NC(=O)C(N)CO)C(=O)O` (stereo not drawn) (H-Ser-Leu-Leu-OH; configuration not given here): -2.03.
For `Cc1c(C)c2cc3c(C)coc3c(C)c2oc1=O`, the logP was 3.62.
As to `CCOC(=O)C1=C(C)NC(C)=C(C(=O)OC)C1c1cc(OC)cc(OC)c1` (centres undefined), the lipophilicity (logP) worked out at 4.08.
Next, `Brc1cc2cccc3ccc4cccc1c4c32`: 5.84; `CC(C)C(Nc1ccc([N+](=O)[O-])cc1[N+](=O)[O-])C(=O)O` (centres undefined): 2.88.
The same measure for `Cc1cccc(Cc2c[nH]cn2)c1`: 2.39; for `CC(C)NC(=O)N1C(=O)N(C)CC1O` (centres undefined): 0.96; for `N#CN=C1NCCN1Cc1cnccc1Cl`: 0.77.
The same measure for `CCCOc1ccc(CNc2[nH]cnc3ncnc2-3)cc1`: 3.15; for `O=c1cc(CSC2CCCCC2)occ1O`: 1.75.
For `COCCNC(=O)c1c(C)nc2c3c(c(C(=O)N(C)C)cn12)CCC(c1ccccc1)O3` (centres undefined), the logP stood at 2.15.
In the case of `CCN(CC)C1CCc2c(OC)cccc2C1C` (centres undefined), the logP is 3.47.
The same measure for `COc1cc2c(cc1OC)C(C=Cc1ccccc1)=NCC2`: 3.39; for `Clc1ccc(CNc2ncnc3nc[nH]c23)cc1`: 2.9.
The same measure for `CC(=O)c1ccc([N+](=O)[O-])cc1O`: 2.05.
`CCCCCCOc1ccc(CC(=O)O)cc1OC` registered a lipophilicity (logP) of 3.3.
The same measure for `COc1ccc(-c2cn3cccnc3n2)c(OC)c1`: 1.94; for `CNc1ccc2cc3ccccc3nc2c1CO`: 2.1.
The same measure for `CC(C)CC(NC(=O)C(CC(C)C)NC(=O)C(C)NC(=O)C(C)NC(=O)CN)C(=O)O` (centres undefined) (H-GAALL-OH; configuration not given here): -2.55.
With `CC(C(=O)O)c1ccc(N2CC3CCCCC3C2=O)cc1` (centres undefined), the logP was 3.15.
Next, `CC(C)CC(N)C(=O)NC(C(=O)O)C(C)C` (stereo not drawn) (H-Leu-Val-OH; configuration not given here): -2.05.
The same measure for `CC(C)Oc1cccc2nc(N)nc(N)c12`: 2.05; for `CSc1cnc(C2=NC(C)(C(C)C)C(=O)N2)c(C(=O)O)c1` (centres undefined): 0.75; for `Cc1c2occc2cc2ccc(=O)oc12`: 2.48.
The same measure for `OCCCCNc1ncnc2c1ncn2C1OC(CO)C(O)C1O` (centres undefined): -0.62; for `CC(C)CC(N)C(=O)NC(CC(C)C)C(=O)NC(Cc1ccc(O)cc1)C(=O)O` (stereo not drawn) (H-Leu-Leu-Tyr-OH; configuration not given here): -1.34; for `C=CCC1C(=O)N(CCN(C)C)c2ccccc2CC1c1ccc(OC)cc1` (centres undefined): 5.3.
`Nc1nnc(-c2cccc(Cl)c2Cl)c(N)n1` gave a logP of 2.57.
In turn, `COc1cc2ncnc(Nc3cccc(I)c3)c2cc1OC` gave a log partition coefficient (logP) of 3.65.
The same measure for `O=c1[nH]c2cc(Cl)ccc2c(O)c1-c1ccccc1`: 3.5.
The compound `Cc1cc2c(ccc3c(C)c(C)c(=O)oc32)o1` yielded a logP of 3.27.
`ClCC1(C(Cl)Cl)C2CC(Cl)(Cl)C1(C(Cl)Cl)CC2(Cl)Cl` (centres undefined) gave a lipophilicity (logP) of 5.96.
Next, `Clc1ccccc1N1CCN(CCCOn2nnc3ccccc32)CC1`: 4.1; `COc1ccc(CCNCC(O)COc2ccc(-c3nc(C)c(Br)[nH]3)cc2)cc1OC` (centres undefined): 3.9; `CC(C)NCC(O)COc1ccc(Cc2nc(Br)c[nH]2)cc1` (centres undefined): 2.2.
`CCCCCCCCOC(=O)c1cccnc1` had a logP of 4.71.
In the case of `NC1=NCC(COc2cccc(Cl)c2)O1` (centres undefined), the logP amounted to 2.09.
Next, `COc1ccc(CCNCC(O)COc2ccc(-c3ncco3)cc2)cc1OC` (centres undefined): 2.6; `COc1cccc(CNc2ncnc3nc[nH]c23)c1`: 2.1.
Next, `CN1CC(O)N(C(=O)Nc2ccccc2)C1=O` (centres undefined): 1.44; `Clc1cc2c(oc3c(Cl)c(Cl)ccc32)c(Cl)c1Cl`: 6.47.
`Brc1ccc2ccc3ccc(Br)c4ccc1c2c34` had a log partition coefficient (logP) of 6.73.
Compound `CCC(C)C(N)C(=O)NC(C)C(=O)NC(C)C(=O)NC(C(=O)O)C(C)CC` (centres undefined) (H-IAAI-OH; configuration not given here) came in with a lipophilicity (logP) of -2.82.
`Nc1nnnn1-c1cccc2ccccc12` registered a log partition coefficient (logP) of 1.72.
On to `CCCC(=NOCC)C1=C(O)CC(c2ccccc2)(c2ccccc2)OC1=O`, for which the logP was found to be 4.75.
Next, `CCCc1nc(Nc2ccccc2OC)nc(N2CCOCC2)n1`: 3.59; `CC(C)CC(N)C(=O)NC(C(=O)NC(C(=O)O)C(C)C)C(C)C` (stereo not drawn) (H-Leu-Val-Val-OH; configuration not given here): -2.1.
The same measure for `NC1=NCC(CN2CCN(c3ccc([N+](=O)[O-])cc3)CC2)O1` (centres undefined): 1.23; for `Cc1ccccc1CNc1[nH]cnc2ncnc1-2`: 2.58.
The same measure for `CCc1cccc2nc(N)nc(N)c12`: 1.69.
